Tests used:
[1] = system: LOLRI; assay: Herbicidal pre-emergence action - Part I; format: in vivo, Lolium rigidum; details: visual grading after ca. 3 weeks vs untreated controls
Description: Seeds of mono- and dicotyledonous weed plants were sown in plastic pots (double sowings with one species of mono- and one species of dicotyledonous weed plants per pot), in sandy loam, and covered with soil. The compounds according to the invention, formulated in the form of wettable powders (WP) or as emulsifiable concentrates (EC), were applied to the surface of the covering soil as aqueous suspension or emulsion, with the addition of 0.5% of an additive, at an application rate of 600 1 of water per hectare (converted). Following treatment, the pots were placed in a greenhouse and kept under optimum growth conditions for the test plants. The visual grading of the damage to the test plants was carried out after ca. 3 weeks in comparison to untreated controls (herbicidaleffectinpercent(%):100%effect=plantshavediedoff,0%effect=ascontrolplants). [formula]
Tables A1 to A12, below, show the effects of selected compounds of the general formula (I) according to table 1 on various harmful plants and an application rate corresponding to 1280 g/ha or below obtained by the experimental procedure mentioned above. Table A1: pre-emergence activity at 1280g/ha against ABUTH in %

[2] = system: VIOTR; assay: Herbicidal pre-emergence action - Part II; format: in vivo, Viola tricolor
Description: (§1) Seeds of mono- and dicotyledonous weed plants and crop plants were sown, in plastic or organic planting pots, in sandy loam and covered with soil. The compounds according to the invention, formulated in the form of wettable powders (WP) or as emulsifiable concentrates (EC), were applied to the surface of the covering soil as aqueous suspension or emulsion, with the addition of 0.5% of an additive, at an application rate of 600 1 of water/ha (converted). Following treatment, the pots were placed in a greenhouse and kept under optimum growth conditions for the test plants. The visual grading of the damage to the test plants was carried out after ca. 3 weeks in comparison to untreated controls (herbicidal effect in percent (%): 100% effect = plants have died off, 0% effect = as control plants). Tables C1 to C12 below show the effects of selected compounds of the general formula (I) according to table 1 on various harmful plants and an application rate corresponding to 320 g/ha or below obtained by the experimental procedure mentioned above. Table C1: pre-emergence activity at 320g/ha against ABUTH in %

[3] = system: VIOTR; assay: Herbicidal post-emergence action - Part II; format: in vivo, Viola tricolor; details: 320 g/ha; Table E9c
Summary of the method: (§2)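 Post-emergence greenhouse test: weeds and crops in sandy loam sprayed at single-leaf stage, 2–3 weeks after sowing, with WP or EC formulations in water plus 0.5% additive at 600 l water/ha. Rates 320 g/ha or below. Visual rating after ca. 3 weeks versus untreated controls, % effect (100% = plants dead).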

[4] = system: SETVI; assay: Herbicidal post-emergence action - Part II; format: in vivo, Setaria viridis; details: 320 g/ha; Table E7c
Summary of the method: as §2

[5] = system: VERPE; assay: Herbicidal post-emergence action - Part I; format: in vivo, Veronica persica; details: one-leaf stage, rated visually after about 3 weeks vs untreated controls
Summary of the method: (§3)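 Greenhouse weeds grown in sandy loam were sprayed post-emergence at the one-leaf stage, 2-3 weeks after sowing. Compounds were applied as WP or EC in water with 0.5% additive at 600 L/ha, at 1280 g/ha or below. Visual damage was rated after about 3 weeks versus untreated plants (0-100%).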

[6] = system: ABUTH; assay: Herbicidal post-emergence action - Part II; format: in vivo, Abutilon theophrasti; details: 320 g/ha; Table E1c
Summary of the method: as §2

[7] = system: VERPE; assay: Herbicidal pre-emergence action - Part II; format: in vivo, Veronica persica
Description: as §1

[8] = system: ABUTH; assay: Herbicidal pre-emergence action - Part II; format: in vivo, Abutilon theophrasti; details: visual grading after ca. 3 weeks vs untreated controls
Description: as §1

[9] = system: MATIN; assay: Herbicidal pre-emergence action - Part II; format: in vivo, Matricaria inodora; details: 320 g/ha; Table C8
Description: as §1

[10] = system: ECHCG; assay: Herbicidal post-emergence action - Part II; format: in vivo, Echinochloa crus-galli; details: 320 g/ha; Table E3b
Description: Seeds of mono- and dicotyledonous weed plants and crop plants were sown, in plastic or organic planting pots, in sandy loam, covered with soil and grown in a greenhouse under controlled growth conditions. 2 to 3 weeks after sowing, the test plants were sprayed in the single-leaf stage. The compounds according to the invention, formulated in form of wettable powders (WP) or as emulsifiable concentrates (EC), were sprayed onto the green plant parts as aqueous suspension or emulsion, with the addition of 0.5% of an additive, at an application rate of 600 1 of water/ha (converted). The test plants were placed in the greenhouse for ca. 3 weeks under optimum growth conditions, and then the effect of the preparations was assessed visually in comparison with untreated controls (herbicidal effect in percent (%): 100% effect = plants have died off, 0% effect = as control plants). Tables E1 to E10 below show the effects of selected compounds of the general formula (I) according to table 1 on various harmful plants and an application rate corresponding to 320 g/ha or below obtained by the experimental procedure mentioned above. Table E1a: post-emergence activity at 5g/ha against ABUTH in %

[11] = system: ALOMY; assay: Herbicidal post-emergence action - Part I; format: in vivo, Alopecurus myosuroides; details: one-leaf stage, rated visually after about 3 weeks vs untreated controls
Description: (§4) Seeds of mono- and dicotyledonous weed plants were placed in plastic pots in sandy loam soil (doubly sown with in each case one species of mono- or dicotyledonous weed plants per pot), covered with soil and cultivated in a greenhouse under controlled growth conditions. 2 to 3 weeks after sowing, the test plants were treated at the one-leaf stage. The compounds of the invention, formulated in the form of wettable powders (WP) or as emulsion concentrates (EC), were applied onto the green parts of the plants as aqueous suspension or emulsion with addition of 0.5% additive at a water application rate of 600 liters per hectare (converted). After the test plants had been kept in the greenhouse under optimum growth conditions for about 3 weeks, the activity of the preparations was rated visually in comparison to untreated controls. For example, 100% activity = the plants have died, 0% activity = like control plants. Tables B1 to B12, below, show the effects of selected compounds of the general formula (I) according to table 1 on various harmful plants and an application rate corresponding to 1280 g/ha or below obtained by the experimental procedure mentioned above. Table B1a: post-emergence activity at 1280g/ha against ABUTH in %

[12] = system: ECHCG; assay: Herbicidal post-emergence action - Part I; format: in vivo, Echinochloa crus-galli; details: one-leaf stage, rated visually after about 3 weeks vs untreated controls
Summary of the method: as §3

[13] = system: AVEFA; assay: Herbicidal pre-emergence action - Part II; format: in vivo, Avena fatua; details: 320 g/ha; Table C4
Description: as §1

[14] = system: ABUTH; assay: Herbicidal post-emergence action - Part I; format: in vivo, Abutilon theophrasti; details: 1280 g/ha, one-leaf stage, rated visually after about 3 weeks vs untreated controls
Summary of the method: as §3

[15] = system: POLCO; assay: Herbicidal pre-emergence action - Part II; format: in vivo, Polygonum convolvulus; details: 320 g/ha; Table C9
Description: as §1

[16] = system: SETVI; assay: Herbicidal post-emergence action - Part I; format: in vivo, Setaria viridis; details: one-leaf stage, rated visually after about 3 weeks vs untreated controls
Description: as §4

Structure (SMILES): Cc1ccsc1C1=NOC2(CCCN(Cc3c(F)cccc3F)C2=O)C1 (racemic) [Compound I-2]
- pre-emergence activity at 320g/ha against LOLRI in % ([1]; 320 g/ha): 100%
- pre-emergence activity at 1280g/ha against LOLRI in % ([1]; 1280 g/ha): 100%
- pre-emergence activity against VIOTR ([2]; 80 g/ha, Table C12b): 90%
- pre-emergence activity against VIOTR ([2]; 320 g/ha, Table C12a): 90%
- post-emergence activity against VIOTR [3]: 80%
- post-emergence activity against SETVI [4]: 90%
- post-emergence activity at 320g/ha against VERPE in % ([5]; 320 g/ha): 90%
- post-emergence activity at 1280g/ha against VERPE in % ([5]; 1280 g/ha): 90%
- post-emergence activity against ABUTH [6]: 80%
- pre-emergence activity against VERPE ([7]; 80 g/ha, Table C11b): 90%
- pre-emergence activity against VERPE ([7]; 320 g/ha, Table C11a): 90%
- pre-emergence activity at 320g/ha against ABUTH in % [8]: 80%
- pre-emergence activity against MATIN [9]: 90%
- post-emergence activity against ECHCG [10]: 90%
- post-emergence activity at 1280g/ha against ALOMY in % [11]: 90%
- post-emergence activity at 320g/ha against ECHCG in % ([12]; 320 g/ha): 90%
- post-emergence activity at 1280g/ha against ECHCG in % ([12]; 1280 g/ha): 90%
- pre-emergence activity against AVEFA [13]: 80%
- post-emergence activity at 1280g/ha against ABUTH in % [14]: 90%
- pre-emergence activity against POLCO [15]: 80%
- post-emergence activity at 80g/ha against SETVI in % ([16]; 80 g/ha): 90%
- post-emergence activity at 320g/ha against SETVI in % ([16]; 320 g/ha): 90%
- post-emergence activity at 1280g/ha against SETVI in % ([16]; 1280 g/ha): 90%

— patent EP4509511A1, “SUBSTITUTED SPIRO-ISOXAZOLINYL LACTAMS, SALTS THEREOF AND THEIR USE AS HERBICIDALLY ACTIVE SUBSTANCES” (Bayer Aktiengesellschaft, priority 2023, dated 2025)
